# Laboratory results reported in PubChem BioAssay AID624258 (Broad Institute, 2012).
# Active and inactive are the calls of the source. The rule behind the calls is not given here.
# Assay: Yeast SKN7 toxicity growth rescue counterscreen, Saccharomyces cerevisiae, plate reader, dose confirmatory (AID 624258);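 note: growth read after three days of incubation at 30 °C; 0% = median of neutral control wells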
# Conditions: S. cerevisiae SKN7-toxicity growth rescue, plate reader; at 6.8 µM (top of the series)
row,Compound,growth rescue activity
1,CC1(C)CC(=O)C(C2C3=C(CC(C)(C)CC3=O)Oc3c(Br)cc(Br)cc32)=C(O)C1 (configuration not stated),-21.5% (inactive)
2,Cc1ccc(NC(=S)Nc2cccc3cnccc23)cc1C,-25.1% (inactive)
3,COc1cc2c(cc1OC)C(C)N(C(=O)c1cccc([N+](=O)[O-])c1)CC2 (configuration not stated),-17.8% (inactive)

# Same assay, conditions: S. cerevisiae SKN7-toxicity growth rescue, plate reader; at 19.5 µM (top of the series)
row,Compound,growth rescue activity
1,CC1CCc2c(C(=O)Nc3ccccn3)csc2C1 (configuration not stated),-95.2% (inactive)
2,CCOc1ccc(N/N=C(/C#N)C(N)=O)cc1,-49.6% (inactive)
3,O=[N+]([O-])c1ccc(/C=N/NC(=S)Nc2ccc(Cl)cc2Cl)s1,-44% (inactive)
4,Clc1ccc(CSC(Cn2ccnc2)c2ccc(Cl)cc2Cl)cc1 (configuration not stated),-73% (inactive)
5,CN(c1ccccc1)c1nc(N2CCCC2)nc(-n2ccnc2)n1,-4.75% (inactive)
6,CC(C)(CN1CCc2ccccc2C1)NS(=O)(=O)c1ccc(Cl)cc1,-9.34% (inactive)
7,Cc1nc(SCc2ccc(OCCC(C)C)cc2)n[nH]1,-93.3% (inactive)
8,CCOC(=O)C1=NN(c2ccccc2)C(=O)/C1=C\c1ccc(N(C)C)cc1,-16.7% (inactive)
9,CCc1ccc(S(=O)(=O)N(C(=O)c2ccncc2)c2ccc(OC(=O)c3ccncc3)cc2)cc1,-42.7% (inactive)
10,Cc1cccc(N2CCN(C(=O)C3(S(=O)(=O)c4ccc(Cl)cc4)CC3)CC2)c1C,-38.2% (inactive)
11,Cc1cc(OCc2cccc(S(=O)(=O)N3CCOCC3)c2)ccc1Cl,66.7% (inactive)
12,O=C(Nc1nc(-c2ccccc2)c(-c2ccccc2)o1)c1ccc(F)cc1,-15.6% (inactive)
13,S=C1NC[C@H](c2ccccc2)N1CCCCC1CCCCC1,85.2% (inactive)
14,CCN(CC)c1ccc(/C=C/c2ccc3ccc(OC)cc3[n+]2CC)cc1,-52.7% (inactive)
15,CC(=O)Nc1cccc(NC(=O)CSc2ccc(-c3ccccn3)nn2)c1,-39.9% (inactive)
16,O=C1Nc2c(Br)cccc2C1=O,-9.27% (inactive)
17,CC(C)N1CCN(c2ccc(OC[C@H]3CO[C@](Cn4cncn4)(c4ccc(Cl)cc4Cl)O3)cc2)CC1,-63.3% (inactive)
18,CCC(CC)C(=O)N1CCN(c2cccc(C)c2C)CC1,-12.1% (inactive)
19,Clc1ccc(C2=NCCN2)cc1,-65.4% (inactive)
20,CCC(C)Sc1cccc(-c2nc3ccccn3c2NCc2ccccc2)c1 (configuration not stated),-90.6% (inactive)
21,COc1cnc(-c2ccccn2)nc1Sc1ccccc1,-65.3% (inactive)
22,COc1ccc(C2=CC(=O)C[C@H](c3ccc4c(c3)OCO4)C2)cc1,89.7% (inactive)
23,Cc1cccc(/C=N/NC(=O)C(C)Nc2cccc3ccccc23)n1 (configuration not stated),-1.71% (inactive)

row,Compound,growth rescue activity
1,COC(=O)C(=N/Nc1ccccc1C(=O)OC)/C(C)=N/O,-7.81% (inactive)
2,C=CCOC(Cn1ccnc1)c1ccc(Cl)cc1Cl (configuration not stated),-40.8% (inactive)
3,CC(C)CNC(=O)COC(=O)c1ccc([N+](=O)[O-])cc1Cl,3.79% (inactive)
4,Oc1c(Cl)c(Cl)c(Cl)c(Cl)c1Cl,-82.9% (inactive)
5,C=CCc1ccc(O)c(-c2ccc(O)c(CC=C)c2)c1,-65.1% (inactive)
6,O=c1cc(CSc2ccc(Cl)cc2)nc(-c2ccccn2)[nH]1,-48.1% (inactive)
7,CC(=O)N(c1ccccc1)c1ccc([N+](=O)[O-])cc1[N+](=O)[O-],-25.3% (inactive)
8,O=C(N1CCN(c2ccccc2)CC1)C1(S(=O)(=O)c2ccc(Cl)cc2)CC1,21.3% (inactive)
9,CCCCNC(=S)N/N=C1\CCCCc2ccccc21,-53.8% (inactive)
10,CC(=O)Nc1cccc(-c2cc(-c3c(Cl)cccc3Cl)no2)c1,-92.6% (inactive)
11,CCCC(=O)NC(c1ccc(N(C)C)cc1)c1ccc2cccnc2c1O (configuration not stated),-7.33% (inactive)
12,COc1ccc(O)c(C(=O)CC(=O)c2ccc(F)cc2)c1,-74.9% (inactive)
13,CCCCNc1c(-c2cccc(Sc3ccc(OC)cc3)c2)nc2ccccn12,-86.4% (inactive)
14,O=C1C(Nc2ccccc2)=C/C(=N/S(=O)(=O)c2cccs2)c2ccccc21,-8.54% (inactive)
15,O=c1c(/C=N/O)coc2ccc(Cl)cc12,-4.03% (inactive)
16,CC1(C)C2CCC1(C)C(OC(=O)c1ccc(O)cc1)C2 (configuration not stated),-86.9% (inactive)
17,CC(=N/O)/C(=N\O)c1ccc(C)o1,3.21% (inactive)
18,O=S(=O)(O)c1cc(Cl)cc(N=Nc2ccc(O)cc2O)c1O,41.4% (inactive)
19,O=[N+]([O-])c1ccc(Sc2ncccn2)c([N+](=O)[O-])c1,-6.92% (inactive)
20,CCCOc1ccc(CSCCNC(=S)Nc2ccccc2)cc1,22% (inactive)
21,c1ccc(CSc2ccc(-c3ccccn3)nn2)nc1,-28% (inactive)
22,O=c1c2ccccc2nc(-c2ccc(-c3ccccc3)cc2)n1-c1ccncc1,-56.1% (inactive)
23,O=C(NOC(=O)c1ccccc1)c1ccccc1,-77.5% (inactive)

row,Compound,growth rescue activity
1,CCN(CC)S(=O)(=O)c1ccc(N=NC2=C(O)CC(C)(C)CC2=O)cc1,-10.4% (inactive)
2,O=C(CN1CC[n+]2c(-c3cccs3)csc21)c1ccc(-c2ccccc2)cc1,-63.4% (inactive)
3,O=C(O)CSc1cc(NS(=O)(=O)c2ccc(Cl)cc2)c2ccccc2c1O,-5.81% (inactive)
4,O=[N+]([O-])c1ccc(Sc2cccc[n+]2[O-])c2nonc12,-4.98% (inactive)
5,Clc1ccc(C(Cn2ccnc2)OCc2c(Cl)cccc2Cl)c(Cl)c1 (configuration not stated),-69.1% (inactive)
6,O=c1[nH]c2c(c(=O)[nH]1)OCN(Cc1ccccc1)C2,-23.4% (inactive)
7,O=C1C=C(NCc2ccccc2)c2ccccc2C1=O,41.7% (inactive)
8,CC(=O)C1=C(c2cccc([N+](=O)[O-])c2)N(C(C)=O)n2c(C)nnc2S1,-84.3% (inactive)
9,O=C(c1cc(COc2ccc(F)cc2Cl)on1)N1CCC(c2ccncc2)CC1,-20.9% (inactive)
10,C=CCn1c(-c2cc(-c3ccc(C)cc3)nc3ccccc23)n[nH]c1=S,0.203% (inactive)
11,O=C(NCCC(=O)N1CCN(c2ccccc2O)CC1)c1ccc(Br)cc1,-9.2% (inactive)
12,CCOc1ccc(S(=O)(=O)n2cc(F)c(=O)[nH]c2=O)cc1,-4.21% (inactive)
13,CCC1=NN(C(=O)c2cccc(Br)c2)C(O)(c2ccc(Br)cc2)C1 (configuration not stated),-2.16% (inactive)
14,N#Cc1c(-c2ccccc2)nc2n(c1=O)CCS2,27.6% (inactive)
15,O=C(c1ccccc1)N1C(=O)C(c2ccccc2)Oc2ccccc21 (configuration not stated),-57.4% (inactive)
16,CCCn1nc(C(=O)N2CCN(S(=O)(=O)c3ccc(C)c(C)c3)CC2)c2ccccc2c1=O,-50.4% (inactive)
17,O=C(C1COc2ccccc2O1)N1CCN(c2ccccc2Cl)CC1 (configuration not stated),-13% (inactive)
18,CC(CNC(=O)COc1ccccc1)OC(=O)Nc1ccc(Cl)c(Cl)c1 (configuration not stated),-93.2% (inactive)
19,Cc1ccc(S(=O)(=O)/N=C2/C=C(C3C(=O)CC(C)(C)CC3=O)C(=O)c3ccccc32)cc1,18.5% (inactive)
20,COc1ccc(C(C)(C)C)cc1NC(=O)COC(=O)c1ccc([N+](=O)[O-])o1,-88.2% (inactive)
21,CN1C(=S)SC(N(O)C(=O)Nc2cccc3ccccc23)C1(C)C (configuration not stated),0.395% (inactive)
22,CC1(OC(=O)CCc2ccccc2)C(=O)C=C2C=C(c3ccc(C#N)cc3)N(Cc3ccco3)C=C2C1=O (configuration not stated),3.67% (inactive)
23,CCC(C)c1ccc(NC(=S)NCCn2cc(Br)cn2)cc1 (configuration not stated),-33.1% (inactive)

row,Compound,growth rescue activity
1,O=S(=O)(c1ccc(Cl)cc1)N1CCC2(CC1)OCCN2S(=O)(=O)c1cccs1,-46.5% (inactive)
2,COc1ccc(O)c(C(=O)CC(=O)c2ccccc2C)c1,-60.2% (inactive)
3,CCC(C)n1ncn(-c2ccc(N3CCN(c4ccc(OCC5COC(Cn6cncn6)(c6ccc(Cl)cc6Cl)O5)cc4)CC3)cc2)c1=O (configuration not stated),-70.7% (inactive)
4,CCn1nc(/C=C/c2ccccc2)nc2c(=O)n(C)c(=O)nc1-2,-44.4% (inactive)
5,CCCCC(c1nnnn1Cc1ccco1)N1CCN(c2nc3ccccc3s2)CC1 (configuration not stated),-9.41% (inactive)
6,Cc1ccc(C)c(/C=C/C(=O)c2ccccc(=O)c2O)c1,-77% (inactive)
7,CC[C@@H](C(=O)[C@@H](C)[C@@H](O)[C@H](C)[C@@H]1O[C@@H]([C@@H](CC)C(=O)O)CC[C@@H]1C)[C@H]1O[C@]2(C=C[C@@H](O)[C@]3(CC[C@@](C)([C@H]4CC[C@](O)(CC)[C@H](C)O4)O3)O2)[C@H](C)C[C@@H]1C,-61.6% (inactive)
8,Cc1cccc(NC(=S)NC(C)CCc2ccccc2)c1 (configuration not stated),-40.4% (inactive)
9,CC(=O)Oc1ccc(N2C(=O)C3C4C=CC(O4)C3C2=O)cc1 (configuration not stated),16.1% (inactive)
10,O=CC1=C(c2ccccc2)Oc2ccccc2O1,-88.1% (inactive)
11,O=C(COc1ccc([N+](=O)[O-])cc1)Nc1nc(-c2ccccn2)cs1,-63.6% (inactive)
12,CCCCNc1c(-c2ccc(-c3ccc(OC)cc3)c(OC)c2)nc2ccccn12,-84.6% (inactive)
13,COc1ccc(N/N=C(\C#N)C(N)=O)cc1,-58.5% (inactive)
14,O=c1c2ccccc2c(-c2ccc(O)cc2)nn1-c1cccc(C(F)(F)F)c1,-88.1% (inactive)
15,Cn1nc(C(F)(F)F)c(C#N)c1N1CCN(c2ccc(F)cc2)CC1,-49.6% (inactive)
16,CCOC(=O)c1ccc(NC(=S)N(Cc2cccnc2)Cc2ccco2)cc1,-37.1% (inactive)
17,CC(C)C(=O)NC(c1ccco1)c1ccc2cccnc2c1O (configuration not stated),-67.3% (inactive)
18,Nc1nc2sc3c(c2c(=O)s1)CCCC3,-93.9% (inactive)
19,COc1ccc(-c2nc(N)sc2C2(O)C(=O)Nc3c(Br)cc(F)cc32)cc1OC (configuration not stated),0.392% (inactive)
20,CNc1cc(CSC)nc(SCc2ccc(Cl)cc2Cl)n1,-57.8% (inactive)
